Like-named read-outs stand apart in the source and are kept apart here.
Legend:
DTH response in mice = type: in vivo; conditions: DTH; for Inhibition of mouse ear swelling: 24 h after challenge; for inhibition relative to that of the high dose of dexamethasone: versus dexamethasone 1 mg/kg
Method: The anti-inflammatory and anti-allergic effects of compounds 1a and 1c were assessed in a mouse model of skin delayed-type hypersensitivity (DTH) reactions and compared to a vehicle control and to the reference drug dexamethasone. DTH reactions are antigen-specific cell-mediated immune responses, driven primarily by T helper type 1 (Th1) cells, similar to the tuberculin immunization response. The immune reaction induced by an ovalbumin challenge to animals previously sensitized with ovalbumin in Complete Freund's Adjuvant, is characterized by swelling (edema) at the site of challenge, e.g. the mouse ear. Dexamethasone, an anti-inflammatory steroid, reduces cell-mediated immune responses and was employed to validate the responsiveness of the assay to pharmacological treatment.
Female BALB/cJW mice were bred at the University of Lodz, Lodz, Poland and housed in groups of 8 in makrolon cages with a 12 h light-dark cycle. Mice were given free access to food (Agropol S.j., Motycz, Poland) and water.
Sensitization: The protein antigen, ovalbumin, was reconstituted in PBS at 4 mg/ml. An ovalbumin-CFA emulsion was prepared by mixing the protein solution with the CFA suspension at a ratio of 1:1, using two Luer-lock syringes. The emulsion was tested by putting a drop of emulsion onto PBS; if the emulsion remained as a tight droplet on the PBS, the emulsion was deemed ready. Mice were sensitized by subcutaneously injecting 25 μL of emulsion into each side of the tail (100 μg ovalbumin per mouse).
Challenge: On the sixth day after sensitization, DTH was elicited by challenging animals subcutaneously (gauge 30 needle, B. Braun Melsungen, Melsungen, Germany) in the left ears with 10 μL of a 1% suspension of heat-aggregated ovalbumin (HOVA) (100 μg ovalbumin per mouse). The right ears were administered subcutaneously with PBS and served to determine the individual differences in ear thicknesses. HOVA was prepared by heating a 5% solution of ovalbumin in saline for 1 h at 80° C. with occasional swirling. After cooling to room temperature and centrifugation (400 g. 10 min at 4° C.), the pellet was washed twice with saline, resuspended at 2% in PBS and aliquots stored at −30° C. Before injection, HOVA was diluted with an equal volume of PBS and sonicated. Ear thickness was measured with a precise spring-loaded caliper (Art. No. 7309, Mitutoyo, Kawasaki, Japan) before challenge, and 24 h after challenge.
Sensitization, challenge and ear thickness measurement were performed under anesthesia (ketamine 80 mg/kg plus xylazine 8 mg/kg, intraperitoneally).
The anti-inflammatory effects of compounds 1a and 1c were compared to a vehicle control (0.5% methyl cellulose solution) and to the reference drug, dexamethasone. Test compounds were given at 25 or 100 mg/kg orally by gavage (Art. No. 432093, Harvard Apparatus GmbH, March-Hugstetten, Germany) 16 h and 3 h before sensitization and then twice daily with the final dose given 3 h prior to ear challenge (a total of 14 administrations). Dexamethasone was given at 0.1 or 1 mg/kg orally by gavage 3 h before sensitization and once daily with the final dose given 3 h prior to antigen challenge (a total of 7 administrations). All administrations were given in a volume of 10 ml/kg.
To account for individual variability, the increase in right ear thickness, before and 24 h after administration of PBS, was subtracted from the HOVA-induced increase in left ear thickness. The increase in ear thickness was calculated by the difference between ear thickness before and 24 h after antigen challenge. Percent inhibition of ear swelling was calculated according to the following formula: % inhibition=100×(IETvehicle−IETcompound)/IETvehicle where IET=(ET24 hrs pc−ETpredose)HOVA-treated ears−(ET24 hrs pc−ETpredose)PBS-treated ears • (IET, increase ear thickness; ET, ear thickness; pc, post challenge)
Mean and standard deviation (SD) were calculated from individual ear edema values. […]

[1] = Pharmacokinetic study after a single oral administration to mice; type: in vivo
Method: The aim of the study was to evaluate pharmacokinetic (PK) properties of five different batches including anhydrates and monohydrates of the crystal form A of compound 1a (cf. Table 1 in Example 5) after a single oral administration to mice. Three of the forms were anhydrous and two were monohydrates.
Compound 1a was administered as a suspension of 0.5% methyl cellulose (Sigma-Aldrich) in water at a dose of 100 mg/kg (10 ml/kg) by oral gavage to non-fasted female Balb/c mice (n=3).
Blood was collected by decapitation at 0.5, 1, 2, 4, 8, 12, 24, and 48 h after administration. Blood plasma was isolated by centrifugation at 4° C. (20,000×g for 10 min), transferred to microtubes containing lithium-heparin and frozen in aliquots at −70° C. until assayed by mass-spectrometry. Mean plasma concentration-time profiles (semi-logarithmic) of the five polymorphic crystal forms of compound 1a are shown in FIG. 6.
For PK evaluation, summary statistics and plotting of concentration/time curves, all values below the lower limit of quantification (LLOQ) were set to zero.

[2] = system: collagen type II-induced arthritis (CIA)
[3] = 100 mg/kg orally twice daily (14 administrations)

Row | Compound | Inhibition of mouse ear swelling (DTH response in mice; 25 mg/kg orally twice daily (14 administrations)) | Inhibition of mouse ear swelling (DTH response in mice; [3]) | inhibition relative to that of the high dose of dexamethasone (DTH response in mice) | tmax ([1]; female, Balb/c, mouse, plasma, po, 100 mg/kg, female Balb/c mice, single oral 100 mg/kg in 0.5% methylcellulose, plasma, read-out: tmax) | overt toxicity ([1]; single oral 100 mg/kg, regardless of the polymorphic crystal form) | spleen and thymus weights ([2]; mouse, in vivo) | toxic effects ([2]; mouse, in vivo) | cumulative arthritis score and paw thickness ([2]; prophylactic regimen day 0-47, 25 and 100 mg/kg orally twice daily, vs vehicle) | arthritis score and cumulative arthritis score ([2]; therapeutic regimen, 100 mg/kg orally twice daily for 20 days, day 11 to 13 and day 21, vs vehicle)
1 | CCCCCCCCCCCCCCCCN(C)CC(O)CS(=O)(=O)O (centres unmarked) [Compound 1a, 2-hydroxy-3-(N-methylhexadecylammonio)propane-sulfonate] | 49% | 52% | up to 98% | 1 to 2 h | No overt toxicity | did not reduce | did not show any toxic effects | reduced | significantly reduced
2 | CCCCCCCCCCCCN(C)CC(O)CS(=O)(=O)O (centres unmarked) [Compound 1c, 2-hydroxy-3-(N-methyldodecylammonio)propanesulfonate] | – | 41% | 77% | – | – | – | – | – | –

— patent publication US11453642B2, “Oxygenated amino- or ammonium-containing sulfonic acid, phosphonic acid and carboxylic acid derivatives and their medical use” (GRI BIO, INC., priority 2011, dated 2022)
